Measurements from patent publication US20090306015A1, “PHARMACEUTICAL COMPOSITIONS AND METHODS OF USE OF HIGHLY LIPOPHILIC SULFHYDRYL COMPOUNDS” (Silamed, Inc., priority 2005, published 2009).
Like-named read-outs stand apart in the source and are kept apart here.

How the values were obtained:
Assay type in all cases: cell-based
[1] = system: human MD-MBA-231 breast cancer cells; test: CellTiter-Blue cell viability, 6-hour pretreatment before doxorubicin administration; settings: for 72 Hours IC10 Doxorubicin / 96 Hours IC10 Doxorubicin: 6-hour pretreatment with compound before IC10 doxorubicin; for 72 Hours IC30 Doxorubicin / 96 Hours IC30 Doxorubicin: 6-hour pretreatment with compound before IC30 doxorubicin
Procedure: (§1) CellTiter-Blue® Reagent Method: Following incubation with test compounds for 72 or 96 hours, human MD-MBA-231 breast cancer cells were briefly washed, […] stained with the CellTiter-Blue® Reagent resazurin. Resazurin measures the metabolic capacity of cells, an indicator of cell viability. Viable cells retain the ability to reduce resazurin into resorufin, that is highly fluorescent. […] This test measures the degree of cytotoxicity caused by the test material. IC50 determination: Data are expressed as the percentage of survival of the untreated (vehicle) control calculated from the fluorescence corrected for background absorbance. The surviving fraction of cells were determined by dividing the mean fluorescence values of the test agents by the mean fluorescence values of untreated control. The inhibitory concentration value for the test agent(s) and control were estimated using Prism 4 software (GraphPad Software, Inc.) by curve-fitting the data using the non-linear regression analysis. In some instances IC50 values could not be extrapolated and these are marked (*). Compounds of the invention were tested as monotherapy and results presented in TABLE 1 Compounds of the invention were tested in combination with inhibitory concentration 30% and 10% (IC30/IC10) of Adriamycin (doxorubicin) following 6 hours of pretreatment with example compounds and results presented in TABLE 3

[2] = system: human MD-MBA-231 breast cancer cells; test: CellTiter-Blue cell viability, concurrent combination treatment with doxorubicin; settings: for 72 Hours IC10 Doxorubicin / 96 Hours IC10 Doxorubicin: concurrent combination with IC10 of Adriamycin (doxorubicin); for 72 Hours IC30 Doxorubicin / 96 Hours IC30 Doxorubicin: concurrent combination with IC30 of Adriamycin (doxorubicin)
Procedure: as §1, with “(doxorubicin)” for “(doxorubicin) following 6 hours of pretreatment with example compounds”, “TABLE 2” for “TABLE 3”

[3] = system: human MD-MBA-231 breast cancer cells; test: CellTiter-Blue cell viability, monotherapy
Procedure: as §1, with “(*).” for “(*). Compounds of the invention were tested as monotherapy and results presented in TABLE 1 Compounds of the invention were tested in combination with inhibitory concentration 30% and 10% (IC30/IC10) of Adriamycin (doxorubicin) following 6 hours of pretreatment with example compounds and results presented in TABLE 3”

[4] = 72 hours incubation, read-out: 72 Hours Treatment IC50
[5] = 96 hours incubation, read-out: 96 Hours Treatment IC50

Row | Compound | 72 Hours IC10 Doxorubicin [1] [µM] | 96 Hours IC10 Doxorubicin [1] [µM] | 72 Hours IC30 Doxorubicin [1] [µM] | 96 Hours IC30 Doxorubicin [1] [µM] | 72 Hours IC10 Doxorubicin [2] [µM] | 96 Hours IC10 Doxorubicin [2] [µM] | 72 Hours IC30 Doxorubicin [2] [µM] | 96 Hours IC30 Doxorubicin [2] [µM] | IC50 [3, 4] [µM] | IC50 [3, 5] [µM]
1 | CC(=O)N[C@@H](CS)C(=O)NCCC[Si](C)(C)C [Eample 1, (R)-2-acetamido-3-mercapto-N-(3-(trimethylsilyl)propyl)propanamide] | 27.13 | 34.20 | 10.04 | 2.162 | 7.49 | 6.703 | 29.67 | 26.70 | 21.6 | 18.8
2 | CC(=O)N[C@@H](CS)C(=O)O [N-Acetyl-L-Cysteine, reference compound] | 499.10 | 454.10 |  |  | 129.70 |  | 639.30 | 925.2 | 277 | 
3 | CC(=O)N[C@@H](CS)C(=O)NC[Si](C)(C)c1ccccc1 [Example 3, (R)-2-acetamido-N-((dimethyl(phenyl)silyl)methyl)-3-mercaptopropanamide] | 35.69 | 37.88 | 11.21 | 3.799 | 8.553 | 9.479 | 39.29 | 30.63 | 28.1 | 24.3
4 | CC(=O)N[C@@H](CS)C(=O)NC[Si](C)(C)C [Example 2, (R)-2-acetamido-3-mercapto-N-((trimethylsilyl)methyl)propanamide] | 210.70 |  | 56.64 | 14.68 | 49.42 | 34.55 | 269.0 |  | 132 | 136
